Test results: PubChem BioAssay (NCI)
Several values for one entry are separate records, joined by “and”; a condition that tells them apart may be missing. Identical values can stand only once.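 Each compound was tested at five concentrations against cells in 96-well plates for 48 hours. GI50 is the concentration that inhibits growth by half. TGI denotes the concentration required for complete inhibition of growth.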

Experiments:
Experiment in all cases: NCI tumour cell line growth inhibition, 48 h
NCI-H23 lung = system: NCI-H23 lung
BT-549 breast = system: BT-549 breast
SN12C renal = system: SN12C renal
OVCAR-5 ovarian = system: OVCAR-5 ovarian
OVCAR-8 ovarian = system: OVCAR-8 ovarian
HOP-92 NSCLC = system: HOP-92 NSCLC
HS 578T breast = system: HS 578T breast
SR leukemia = system: SR leukemia
EKVX NSCLC = system: EKVX NSCLC
SK-MEL-2 melanoma = system: SK-MEL-2 melanoma

SMILES | TGI (NCI-H23 lung) | TGI (BT-549 breast) | TGI (SN12C renal) | TGI (OVCAR-5 ovarian) | TGI (OVCAR-8 ovarian) | TGI (HOP-92 NSCLC) | TGI (HS 578T breast) | TGI (SR leukemia) | TGI (EKVX NSCLC) | TGI (SK-MEL-2 melanoma) | GI50 (NCI-H23 lung) | GI50 (BT-549 breast) | GI50 (SN12C renal) | GI50 (OVCAR-5 ovarian) | GI50 (OVCAR-8 ovarian) | GI50 (HS 578T breast) | GI50 (EKVX NSCLC)
c1ccc(COc2ncccc2C2SCCCS2)cc1 | > 100 µM | > 100 µM | > 100 µM | > 100 µM | > 100 µM | > 100 µM | > 100 µM | > 100 µM | > 100 µM | > 100 µM |  |  |  |  |  |  | 
COC(=O)CNC(=O)/C=C/[C@H](O[Si](C)(C)C(C)(C)C)[C@H](/C=C/C(=O)NCC(=O)OC)O[Si](C)(C)C(C)(C)C | > 25 µM | > 25 µM | > 25 µM | > 25 µM | > 25 µM | > 25 µM | > 25 µM | > 25 µM | > 25 µM | > 25 µM |  |  |  |  |  |  | 
CNC(=O)OCC1=C(COC(=O)NC)CN(c2ccccc2)C1 | > 100 µM | > 100 µM | > 100 µM | > 100 µM | > 100 µM | > 100 µM | > 100 µM | > 100 µM | > 100 µM | > 100 µM |  |  |  |  |  |  | 
CSC1(SC)CCCCCCCCCCC1 | > 100 µM | > 100 µM | > 100 µM | > 100 µM | > 100 µM | 87.5 µM | > 100 µM | > 100 µM | > 100 µM | > 100 µM |  |  |  |  |  |  | 
COC1=CC2(C=CC1=O)CCN=c1c(O)c3c(c(O)c12)=NC=N3 (configuration not stated) | > 100 µM | > 100 µM | > 100 µM | > 100 µM | > 100 µM | > 100 µM | > 100 µM | > 100 µM | > 100 µM | > 100 µM |  |  |  |  |  |  | 
Cc1nn(C(=O)c2ccccc2O)c2c1C(c1ccc(O)cc1)SC(N)=N2 (configuration not stated) | > 10 µM | > 10 µM | > 10 µM | > 10 µM | > 10 µM |  | > 10 µM | > 3.92 µM | > 10 µM | > 10 µM |  |  |  |  |  |  | 
O=C(O)c1ccc(Nc2cnc3ccc(C(F)(F)F)cc3n2)cc1 | 33.5 µM | 60.1 µM | 90.2 µM | > 100 µM | 41.2 µM | 38.9 µM | 40 µM | 43.8 µM | > 100 µM | 30.7 µM |  |  |  |  |  |  | 
Cc1ccc(Nc2nnc3n2S(=O)(=O)c2cc(C)c(Cl)cc2S3)cc1 | 48.3 µM | 31.3 µM |  | 74.8 µM | 33.1 µM | 83.1 µM | 8.67 µM | 7.85 µM | 87.4 µM | 67.1 µM |  |  |  |  |  |  | 
CN1C/C(=C\c2ccccc2[N+](=O)[O-])C(=O)/C(=C/c2ccccc2[N+](=O)[O-])C1 | 3.26 µM and > 20.7 µM | 0.448 µM and 2.09 µM | 4.88 µM and 2.22 µM | 10.3 µM and 3.87 µM | 0.328 µM and 1.85 µM | 2.75 µM and 2.61 µM | 24 µM and 3.42 µM | 13.2 µM and 7.93 µM | 13.1 µM and 11 µM | 8.87 µM and 4.36 µM | 0.868 µM | 0.149 µM and 0.626 µM | 1.98 µM and 0.809 µM | 3.27 µM and 1.05 µM | 0.175 µM and 0.517 µM | 1.97 µM and 0.759 µM | 2.94 µM and 0.554 µM
C=CCOn1c(C=C)nc2c(C)cccc21 | 24.1 µM | 19.1 µM | 13.2 µM | 23.3 µM | > 100 µM | 34.4 µM | > 100 µM | 12.6 µM | 29.2 µM | 4.79 µM |  |  |  |  |  |  | 
Clc1ncc(C(Cl)(Cl)Cl)nc1-c1ccccc1 | 6.07 µM | 8.81 µM | 8.57 µM | 30.9 µM | 7.16 µM | 4.5 µM | 6.95 µM | 10.9 µM | 6.02 µM | 5.04 µM |  |  |  |  |  |  | 
CCCCCCCC(CC(=O)O)OC(=O)CC(CCCCCCC)OC1OC(C)C(O)C(O)C1OC1OC(C)C(O)C(O)C1O (configuration not stated) | > 100 µM | > 100 µM | > 100 µM | > 100 µM | > 100 µM | > 100 µM | > 100 µM | > 100 µM | > 100 µM | > 100 µM |  |  |  |  |  |  | 
BrCC[P+](c1ccccc1)(c1ccccc1)c1ccccc1 |  | 39.6 µM | 8.39 µM | 26.8 µM | 21.9 µM | 13.1 µM | 50.5 µM | 27.5 µM | 12.8 µM | 16.7 µM |  |  |  |  |  |  | 
CN(C)CCn1c(=O)c2ccc(NCCNCCO)c3c(=O)c4cc(O)ccc4n(c1=O)c23 | 3.64 µM | 32.4 µM | 5.15 µM | 16.1 µM | 7.47 µM | 4.56 µM | 11.4 µM | 0.619 µM | 14.3 µM | 6.85 µM |  |  |  |  |  |  | 
COc1ccc(C[C@H]2COC(=O)[C@@H]2Cc2cc(OC)c(OC)c(OC)c2)cc1OC | > 100 µM | > 100 µM | > 100 µM | > 100 µM | > 100 µM | > 100 µM | > 100 µM | > 100 µM | > 100 µM | > 100 µM |  |  |  |  |  |  | 
CN(Cc1nc2c(N)nc(N)nc2nc1N)c1ccc(C(=O)NC(CCC(=O)O)C(=O)O)cc1 (configuration not stated) | > 100 µM | > 100 µM | > 100 µM | > 100 µM | > 100 µM | > 100 µM | > 100 µM | > 100 µM | > 100 µM | > 100 µM |  |  |  |  |  |  | 
CC1=CC(c2ccccc2)n2c(nc3cc4ccccc4cc32)N1 (configuration not stated) | > 100 µM | > 100 µM |  | > 100 µM | > 100 µM | > 100 µM | > 100 µM | > 100 µM | > 100 µM | > 100 µM |  |  |  |  |  |  | 
COC(=O)c1ccc(OCc2ccc3nc(-c4ccccc4)c(Cl)nc3c2)cc1 | > 100 µM | > 100 µM | > 100 µM | > 100 µM | > 100 µM | > 100 µM | 99.4 µM | > 100 µM | > 100 µM | > 100 µM |  |  |  |  |  |  | 
CCC1(O)CN(CCOC)[C@H]2C[C@@H]1C(=O)c1[nH]c3ccccc3c12 (some centres not stated) | > 100 µM | > 100 µM | > 100 µM | > 100 µM | > 100 µM | > 100 µM | > 100 µM | > 100 µM | > 100 µM | > 100 µM |  |  |  |  |  |  | 
C/C=C\C(CC(=O)O)CC(=O)NCCC1CN(S(=O)(=O)C(F)(F)F)c2ccccc21 (configuration not stated) | > 100 µM | > 100 µM |  | > 100 µM | > 100 µM | > 100 µM | > 100 µM | > 100 µM | > 100 µM | > 100 µM |  |  |  |  |  |  | 
